According to patent publication US20070021501A1, “Methods of treating epileptogenesis” (priority 2005, published 2007):
“And” between values parts separate entries of the source, which are not always exact repeats. Identical values can stand only once.

What was measured:
[1] = system: lithium-pilocarpine model of temporal lobe epilepsy in the rat; assay: Quantification of cell densities in hippocampus, thalamus and cortex after Li-pilo SE (Example 1); assay type: in vivo; conditions: DZP
Method: Quantification of cell densities was performed at 6 days after SE on 8 pilo-DZP, 8 pilo-TC10, 7 pilo-TC30, 7 pilo-TC60, and 6 saline-saline rats.
Cell counts were performed twice in a blind manner and were the average of at least 3 values from 2 adjacent sections in each individual animal. Counts involved only cells larger than 10 μm, smaller ones being considered as glial cells.
For the comparison of the characteristics of SE in pilo-saline and pilo-test compound animals, a non-paired Student's t-test was used. The comparison between the number of rats seizing in both groups was performed by means of a Chi square test. For neuronal damage, statistical analysis between groups was performed using ANOVA followed by a Fisher's test for multiple comparisons using the Statview software (Fisher R A, 1946a, Statistical Methods for Research Workers (10th edition) Oliver & Boyd, Edinburgh; Fisher R A, 1946b, The Design of Experiments (4th edition) Oliver & Boyd, Edinburgh) Behavioral and EEG Characteristics of Lithium-pilocarpine Status Epilepticus

[2] = system: lithium-pilocarpine model of temporal lobe epilepsy in the rat; assay: Latency to and frequency of spontaneous seizures, video recording (Example 2); assay type: in vivo, Sprague-Dawley rats; conditions: DZP 2.5 mg/kg i.m.
Method: The effects of DZP and the 4 doses of TC on epileptogenesis were investigated by daily video recording of the animals for 10 h per day. Video recording was performed for 4 weeks during which the occurrence of the first seizure was noted as well as the total number of seizures over the whole period. Animals were then taken off the video recording system and kept for 4 additional weeks in our animal facilities before they were sacrificed after a total period of 8 weeks of epilepsy.

[3] = system: lithium-pilocarpine status epilepticus in the rat; assay: Mortality over the first 48 h after Li-pilo SE (Example 2); assay type: in vivo, Sprague-Dawley rats; conditions: DZP 2.5 mg/kg i.m.
Method: Adult male Sprague-Dawley rats provided by Janvier Breeding Center (Le Genest-St-lsle, France) were housed under controlled, uncrowded standard conditions at 20-22° C. (light/dark cycle, 7.00 a.m.-7.00 p.m. lights on), with food and water available ad libitum. All animal experimentation was performed in accordance with the rules of the European Communities Council Directive of Nov. 24, 1986 (86/609/EEC), and the French Department of Agriculture (License N^o 67-97).

[4] = system: lithium-pilocarpine status epilepticus in the rat; assay: EEG patterns during and after Li-pilo SE (Example 1); assay type: in vivo; conditions: DZP 2 mg/kg i.m.; cortex and hippocampus
Method: (§1) Male Wistar rats weighing 225-250 g, provided by Janvier Breeding Center (Le Genest-St-lste, France) were housed under controlled standard conditions (light/dark cycle, 7.00 a.m.-7.00 p.m. lights on), with food and water available ad libitum. All animal experimentation was performed in accordance with the rules of the European Communities Council Directive of Nov. 24, 1986 (86/609/EEC), and the French Department of Agriculture (License N^o 67-97). For electrode implantation, rats were anesthetized by an i.p. injection of 2.5 mg/kg diazepam (DZP, Valium, Roche, France) and […] ketamine chlorhydrate (Imalgene 1000, Rhone Merrieux, France). Four single-contact recording electrodes were placed on the skull, over the parietal cortex, two on each side.
(§2) The bilateral EEG cortical activity was recorded during the whole duration of SE and behavioral changes were noted.
The effects of the test compound on the EEG and on the latency to occurrence of SRS were investigated by daily video recording of the animals for 10 h per day and the recording of the electrographic activity twice a week for 8 h.

[5] = system: lithium-pilocarpine status epilepticus in the rat; assay: Mortality induced by SE, lithium-pilocarpine model (Example 1); assay type: in vivo; conditions: DZP 2 mg/kg i.m. 1 h after onset of SE (5/22)
Description: The model induced in rats by pilocarpine associated with lithium (Li-Pilo) reproduces most of the clinical and neurophysiological features of human temporal lobe epilepsy (Turski et al., 1989, Synapse 3:154-171; Cavalheiro, 1995, Ital J Neurol Sci 16:33-37). In adult rats, the systemic administration of pilocarpine leads to status epilepticus (SE). The lethality rate reaches 30-50% during the first days. In the surviving animals, neuronal damage predominates within the hippocampal formation, the piriform and entorhinal cortices, thalamus, amygdaloid complex, neocortex and substantia nigra.
as §1, §2
The effects of increasing doses of the test compound were studied on 3 groups of rats. The animals of the first group received 10 mg/kg of the test compound, i.p., 1 h after the onset of SE (pilo-TC10) while the animals of groups 2 and 3 received 30 and 60 mg/kg of the test compound (pilo-TC30 and pilo-TC60), respectively.
The control group received saline instead of pilocarpine and the test compound (saline-saline). […] Pilo-DZP received a second injection of 1 mg/kg DZP on the day of SE at about 10 h after the first one. Thereafter, Pilo-DZP and saline-saline rats received twice daily an equivalent volume of saline.

[6] = system: lithium-pilocarpine model of temporal lobe epilepsy in the rat; assay: Quantification of cell densities (neuronal counting) 14 days after Li-pilo SE (Example 2); conditions: for number of neuronal cell bodies: DZP 2.5 mg/kg i.m., 14 days after li-pilo SE
Method: All rats received lithium chloride (3 meq/kg, i.p., Sigma, St Louis, Mo., U.S.A.) and about 20 h later, all animals received also methylscopolamine bromide (1 mg/kg, s.c., Sigma) that was administered to limit the peripheral effects of the convulsant. […] The effects of increasing doses of TC were studied in 5 groups of rats. […] The control group received vehicle instead of pilocarpine and TC.
For neuronal counting, animals were deeply anesthetized with 1.8 g/kg pentobarbital (Dolethal®, Vétoquinol, Lure, France). Brains were then removed and frozen. Serial 20 μm slices were cut in a cryostat, air-dried during several days before thionine staining. […] The grid of counting was placed on a well defined area of the cerebral structure of interest and counting was carried out with a microscopic enlargement of 200- or 400-fold defined for each single cerebral structure. Cell counts were performed twice on each side of three adjacent sections for each region by a single observer unaware of the animal's treatment. The number of cells obtained in the 12 counted fields in each cerebral structure was averaged. This procedure was used to minimize the potential errors that could result from double counting leading to overestimation of cell numbers. […] Counts involved only neurons with cell bodies larger than 10 μm. Cells with small cell bodies were considered as glial cells and were not counted.
For neuronal damage and epileptogenesis, statistical analysis between groups was performed by means of a one-way analysis of variance followed by a post-hoc Dunnett or Fisher test using the Statistica software.

With `CN1C(=O)CN=C(c2ccccc2)c2cc(Cl)ccc21` [DZP, diazepam] the “damage compared to saline-saline rats” value ([1]; dentate gyrus granule cell layer) was “did not show visible damage”, the “damage compared to saline-saline rats” value ([1]; dorsal entorhinal cortex layer II) was 9% and the “damage compared to saline-saline rats” value ([1]; dorsal entorhinal cortex layers III-IV) was 15%. For the same compound, the “cell loss compared to saline-saline rats” value ([1]; hilus of dentate gyrus) was 73%, the “cell loss compared to saline-saline rats” value ([1]; hippocampus CA1 pyramidal cell layer) was 70% and 75% and the “cell loss compared to saline-saline rats” value ([1]; hippocampus CA3a) was 54%. The “cell loss compared to saline-saline rats” value ([1]; hippocampus CA3b) was 31%, the “cell loss compared to saline-saline rats” value ([1]; lateral thalamic nucleus) was 91% and the “cell loss compared to saline-saline rats” value ([1]; mediodorsal thalamic nucleus) was 56%. The “cell loss compared to saline-saline rats” value ([1]; piriform cortex layer II) was 53%, the “cell loss compared to saline-saline rats” value ([1]; piriform cortex layers III-IV) was “total” and the “damage compared to saline-saline rats” value ([1]; ventral entorhinal cortex layer II) was “totally preserved”. The “cell loss compared to saline-saline rats” value ([1]; ventral entorhinal cortex layers III-IV) was 44%, the “frequency of spontaneous seizures over the four weeks of recording” value [2] was “tendency to be higher” and the “mortality over the first 48 h after SE” value ([3]; group devoted to cell counting at 14 days (4/11)) was 36%. The “mortality over the first 48 h after SE” value ([3]; group devoted to latency to SRS and late cell counting (1/14)) was 7%, the “EEG by 6-7 h of SE” value [4] was “spiking activity was still present in the cortex and the hippocampus” and the “mortality during the first 48 h after SE” value [5] was 23%. For the same compound, the “number of neuronal cell bodies” value ([6]; Amygdala Medial, dorsal anterior) was 40.0 ± 2.5, the “number of neuronal cell bodies” value ([6]; Amygdala Medial, ventral posterior) was 21.8 ± 2.4 and the “number of neuronal cell bodies” value ([6]; Cerebral cortex Entorhinal, layer II, dorsal) was 23.5 ± 0.7. The “number of neuronal cell bodies” value ([6]; Cerebral cortex Entorhinal, layer II, ventral) was 21.7 ± 1.3, the “number of neuronal cell bodies” value ([6]; Cerebral cortex Entorhinal, layer III/IV, dorsal) was 22.3 ± 0.5 and the “number of neuronal cell bodies” value ([6]; Cerebral cortex Entorhinal, layer III/IV, ventral) was 7.7 ± 2.3. The “number of neuronal cell bodies” value ([6]; Cerebral cortex Piriform, layer II, dorsal) was 12.6 ± 4.2, the “number of neuronal cell bodies” value ([6]; Cerebral cortex Piriform, layer II, ventral) was 3.6 ± 0.7 and the “number of neuronal cell bodies” value ([6]; Cerebral cortex Piriform, layer III) was 1.2 ± 1.2. The neurons surviving ([6]; DZP, all parts of the entorhinal cortex (range), 14 days after SE) was 27-81%, the “neuronal loss (drop out) compared to control rats” value ([6]; DZP, amygdala basolateral nucleus, 14 days after SE) was 73% and the “neuronal damage compared to control rats” value ([6]; DZP, amygdala central nucleus, 14 days after SE) was “no neuronal damage”. For the same compound, the “neuronal loss (drop out) compared to control rats” value ([6]; DZP, amygdala medial dorsal anterior nucleus, 14 days after SE) was 53%, the “neuronal loss compared to control rats” value ([6]; DZP, amygdala medial ventral posterior nucleus, 14 days after SE) was 38% and the “neuronal damage compared to control rats” value ([6]; DZP, dentate gyrus granule cell layer, 14 days after SE) was “did not show overt damage”. The “neuronal damage compared to control saline-treated rats” value ([6]; DZP, dorsal entorhinal cortex layer II, 14 days after SE) was 18%, the “neuronal damage compared to control saline-treated rats” value ([6]; DZP, dorsal entorhinal cortex layers III-IV, 14 days after SE) was 24% and the “neuronal loss compared to control rats” value ([6]; DZP, hilus of dentate gyrus, 14 days after SE) was 65% and 66%. The “neuronal loss (drop out) compared to control rats” value ([6]; DZP, hippocampus CA1 pyramidal cell layer, 14 days after SE) was 85%, the “neuronal loss compared to control rats” value ([6]; DZP, hippocampus CA3 region, 14 days after SE) was 40% and the “neuronal loss compared to control saline-treated rats” value ([6]; DZP, piriform cortex dorsal layer II, 14 days after SE) was 66%. For the same compound, the “neuronal loss compared to control saline-treated rats” value ([6]; DZP, piriform cortex layer III, 14 days after SE) was 94%, the “neuronal loss compared to control saline-treated rats” value ([6]; DZP, piriform cortex ventral layer II, 14 days after SE) was 89% and the “neuronal loss (drop out) compared to control rats” value ([6]; DZP, thalamus central medial nucleus, 14 days after SE) was 34%. The “neuronal loss (drop out) compared to control rats” value ([6]; DZP, thalamus dorsolateral medial dorsal nucleus, 14 days after SE) was 40%, the “neuronal loss (drop out) compared to control rats” value ([6]; DZP, thalamus mediodorsal central nucleus, 14 days after SE) was 18% and the “neuronal loss (drop out) compared to control rats” value ([6]; DZP, thalamus mediodorsal lateral nucleus, 14 days after SE) was 24%. The “neuronal loss compared to control rats” value ([6]; DZP, thalamus mediodorsal nucleus, 14 days after SE) was 49%, the “neuronal loss compared to control rats” value ([6]; DZP, thalamus ventral lateral division of the dorsolateral nucleus, 14 days after SE) was 90% and the “neuronal damage compared to control saline-treated rats” value ([6]; DZP, ventral entorhinal cortex layer II, 14 days after SE) was 22% and 19%. The “neuronal damage compared to control saline-treated rats” value ([6]; DZP, ventral entorhinal cortex layers III/IV, 14 days after SE) was 74% and 73%, the “number of neuronal cell bodies” value ([6]; Hippocampus CA1 area) was 10.9 ± 1.9 and the “number of neuronal cell bodies” value ([6]; Hippocampus CA3 area) was 31.3 ± 2.9. The “number of neuronal cell bodies” value ([6]; Hippocampus Hilus) was 33.5 ± 3.0, the “number of neuronal cell bodies” value ([6]; Thalamus Central medial) was 74.2 ± 7.4 and the “number of neuronal cell bodies” value ([6]; Thalamus Dorsolateral, medial, dorsal) was 61 ± 6.3. The “number of neuronal cell bodies” value ([6]; Thalamus Dorsolateral, ventral lateral) was 9.7 ± 2.5, the “number of neuronal cell bodies” value ([6]; Thalamus Mediodorsal central) was 26.3 ± 1.8 and the “number of neuronal cell bodies” value ([6]; Thalamus Mediodorsal lateral) was 19.6 ± 0.8. The “number of neuronal cell bodies” value ([6]; Thalamus Mediodorsal medial) was 16.4 ± 1.9.
